Measured values published in patent US10564164B2, “Fluorescent probe, singlet oxygen detection agent, and singlet oxygen detection method” (Osaka University, priority 2014, dated 2020).
Where two headings read alike, the source gives them in different places.

How the values were obtained:
[1] = cited from earlier work
[2] = Time-resolved phosphorimetry (singlet oxygen generation quantum yield); format: physicochemical; conditions: 250 μM in DMSO and methanol (1:9); 532 nm excitation
Protocol: A sample of Rose Bengal and the Si-Me of Comparative Example 1 was prepared in a DMSO and methanol (1:9) solution placed in a 1×1×4 cm^3 quartz cell (the concentration of Rose Bengal=21.5 μM, and the concentration of Si-Me=250 μM).
Second harmonic oscillation (532 nm, 4 nsfwhm, 5.0 mJ·cm^−2 pulse^−1) generated by a Q-switched Nd YAG laser (Surelite II-10, Continuum) was used as an excitation light. The light-induced luminescence of the sample cell was condensed on a quartz lens via a monochromator, and subsequently introduced into a near-infrared photomultiplier tube module (H10330A-75; Hamamatsu Photonics K.K.).
After the amplification using a 350-MHz amplifier unit (SR445A; Stanford Research Systems), the output of the photomultiplier tube was sent to a gated photon counter (SR400; Stanford Research Systems) under direct PC control via a GPIB interface. In order to measure the lifetime of ^1O2, measurement was performed by changing the delay time between 0 to 50 μseconds at a gate width of 1.0 μsecond, and accumulating the results (repeated 5 times).

HeLa cells = assay: Selectivity of photosensitizer: intracellular singlet oxygen detection with Si-DMA; format: cell-based; conditions: HeLa cells, Si-DMA probe; 60-second light irradiation; photosensitizer as labelled
Protocol: Subsequently, a quick protocol provided by Molecular Probe® for introducing CellROX Green was followed. Using diluted Si-DMA and Si-Me, incubation was performed for 30 minutes to two hours by an experiment. To introduce a photosensitizer, 150 μg/mL of 5-aminolevulinic acid (5-ALA) or 10 LM TMPyP4 were incubated for four hours and 24 hours, respectively. As a result, as previously reported, the conversion of 5-ALA into protoporphyrin IX (PpIX) in the mitochondria was confirmed by the fluorescence luminescence of PpIX.
A KillerRed vector was expressed in accordance with a general Lipofectamine® 2000 (Invitrogen) protocol. More specifically, 2×10^5 Hela cells were subcultured in a 35-mm glass bottom dish. The cells reached about 50% confluent in the next day.
Subsequently, a mixed solution of Lipofectamine reagent and DNA vector was obtained by mixing 6 μL Lipofectamine® 2000 with 7 μL pKillerRed-dMitovector ([…], Evrogen, catalog No. FP964) in an Opti-MEM solution (Gibco). Thereafter, the resulting solution was incubated for 20 minutes at room temperature. 300 μL of the mixed solution was added to a growth medium, and incubated for 24 hours. The expression of KillerRed was confirmed by monitoring KillerRed fluorescence using a wide-view microscope. […]
Further, on the night before the treatment, 0.2×10^6 HeLa cells were seeded on a 35-mm dish, and pKillerRed-dMito vector (Evrogen) was introduced using Lipofectaimine®2000 (Invitrogen®), followed by 24-hour incubation as described above, thereby preparing HeLa cells containing […]. […] Light irradiation was performed for 30 seconds simultaneously at 0.5 W/cm^2 and 0.6 W/cm^2 using a 640-/532-nm laser (Coherent) and a wide-view fluorescence microscope system mounted in an IX81 inverted microscope (Olympus Corporation). […]
Further, in this Experiment Example, 60-second light irradiation was performed using three kinds of photosensitizers, and an average number of pseudo colors appeared in the photo and an increase thereof were measured. […]

## O=C1OC2(c3cc(Cl)c(O)cc3Oc3cc(O)c(Cl)cc32)c2ccccc21 [2,7-dichlorofluorescein]
[1]; comparison value for SOSG chromophore
  ΦΔ (singlet oxygen generation quantum yield): 0.06

## O=C([O-])c1c(Cl)c(Cl)c(Cl)c(Cl)c1-c1c2cc(I)c(=O)c(I)c-2oc2c(I)c([O-])c(I)cc12.[Na+].[Na+] [Rose Bengal]
[1]; in methanol, reference value
  ΦΔ (singlet oxygen generation quantum yield): 0.76

## Cc1ccccc1C1=C2C=CC(=[N+](C)C)C=C2[Si](C)(C)c2cc(N(C)C)ccc21 [Si-Me]
[2]
  ΦΔ (singlet oxygen generation quantum yield): about 0.02

## C[n+]1ccc(-c2c3nc(c(-c4cc[n+](C)cc4)c4ccc([nH]4)c(-c4cc[n+](C)cc4)c4nc(c(-c5cc[n+](C)cc5)c5ccc2[nH]5)C=C4)C=C3)cc1 [TMPyP4, tetra-(N-methyl-4-pyridyl)porphyrin, reference compound]
HeLa cells
  average number of pseudo colors during light irradiation (Si-DMA fluorescence): decreased
